Experiment [1] addresses Histone deacetylase 5 (Homo sapiens, UniProt Q9UQL6). Briefly: Inhibition of human recombinant HDAC5 using AMC-K(TFA)GL as substrate by fluorescence based assay.
Experiment [2] has as its target T1, Histone deacetylase 8 (Homo sapiens, UniProt Q9BY41).
T1 sequence (Q9BY41 whole entry): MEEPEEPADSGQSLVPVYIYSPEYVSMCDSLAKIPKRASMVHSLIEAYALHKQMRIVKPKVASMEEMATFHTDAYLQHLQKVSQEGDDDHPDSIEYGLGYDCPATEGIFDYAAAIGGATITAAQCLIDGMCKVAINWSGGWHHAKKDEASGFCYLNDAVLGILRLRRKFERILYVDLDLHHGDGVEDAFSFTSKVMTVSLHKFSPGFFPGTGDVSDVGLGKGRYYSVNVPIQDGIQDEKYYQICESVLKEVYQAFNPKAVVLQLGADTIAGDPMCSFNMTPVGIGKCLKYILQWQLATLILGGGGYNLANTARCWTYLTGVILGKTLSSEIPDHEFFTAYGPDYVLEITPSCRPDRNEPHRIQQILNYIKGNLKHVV
Briefly: Inhibition of human recombinant HDAC8 using AMC-K(Ac)GL as substrate by fluorescence based assay.

The target of experiment [3] is Histone deacetylase 3 (Homo sapiens, UniProt O15379). Briefly: Inhibition of human recombinant HDAC3 using AMC-K(Ac)GL as substrate by fluorescence based assay.
Experiment [4] addresses Histone deacetylase 1 (Homo sapiens, UniProt Q13547). Briefly: Inhibition of human recombinant HDAC1 using AMC-K(Ac)GL as substrate by fluorescence based assay.
The target of experiment [5] is T2, Protein deacetylase HDAC6 (Homo sapiens, UniProt Q9UBN7).
T2 sequence (Q9UBN7 whole entry): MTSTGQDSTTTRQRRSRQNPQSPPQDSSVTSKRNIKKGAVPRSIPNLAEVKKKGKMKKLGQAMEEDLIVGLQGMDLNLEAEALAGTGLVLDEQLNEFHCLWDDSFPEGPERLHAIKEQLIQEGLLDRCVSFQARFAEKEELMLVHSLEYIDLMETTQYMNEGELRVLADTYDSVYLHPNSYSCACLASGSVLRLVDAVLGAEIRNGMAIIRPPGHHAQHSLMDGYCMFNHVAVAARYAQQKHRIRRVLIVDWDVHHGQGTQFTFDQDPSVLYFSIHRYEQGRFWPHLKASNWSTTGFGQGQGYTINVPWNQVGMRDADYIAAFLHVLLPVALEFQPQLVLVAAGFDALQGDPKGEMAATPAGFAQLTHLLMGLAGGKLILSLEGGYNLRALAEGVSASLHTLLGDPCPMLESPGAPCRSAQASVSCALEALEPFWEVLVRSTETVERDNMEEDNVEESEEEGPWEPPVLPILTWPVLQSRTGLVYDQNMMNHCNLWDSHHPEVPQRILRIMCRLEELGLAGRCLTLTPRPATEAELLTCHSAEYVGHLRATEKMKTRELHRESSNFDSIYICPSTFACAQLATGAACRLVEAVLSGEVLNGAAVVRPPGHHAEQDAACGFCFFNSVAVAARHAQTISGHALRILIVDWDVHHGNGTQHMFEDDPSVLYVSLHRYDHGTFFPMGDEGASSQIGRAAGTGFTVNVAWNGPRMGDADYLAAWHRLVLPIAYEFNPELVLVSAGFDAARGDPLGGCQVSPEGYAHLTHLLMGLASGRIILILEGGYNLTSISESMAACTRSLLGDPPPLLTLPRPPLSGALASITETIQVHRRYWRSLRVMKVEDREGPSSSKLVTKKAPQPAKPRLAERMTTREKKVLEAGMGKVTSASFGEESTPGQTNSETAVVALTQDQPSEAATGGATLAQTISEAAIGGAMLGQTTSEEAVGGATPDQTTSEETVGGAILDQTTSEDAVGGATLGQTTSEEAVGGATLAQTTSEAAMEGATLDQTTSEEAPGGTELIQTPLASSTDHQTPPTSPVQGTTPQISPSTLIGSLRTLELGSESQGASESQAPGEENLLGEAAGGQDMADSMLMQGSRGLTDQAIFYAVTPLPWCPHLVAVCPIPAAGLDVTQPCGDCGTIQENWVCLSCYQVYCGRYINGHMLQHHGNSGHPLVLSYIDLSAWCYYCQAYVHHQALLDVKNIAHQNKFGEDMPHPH
Put plainly: Inhibition of human recombinant HDAC6 using AMC-K(Ac)GL as substrate by fluorescence based assay.

Experiment [6] addresses Histone deacetylase 2 (Homo sapiens, UniProt Q92769).
Description: Inhibition of human recombinant HDAC2 using AMC-K(Ac)GL as substrate by fluorescence based assay
The target of experiment [7] is T3, Histone-lysine N-methyltransferase EZH2 (Homo sapiens, UniProt Q15910). Put plainly: Inhibition of human EZH2 using core histone as substrate at 100 uM incubated for 1 hr by fluorescence based assay relative to control.
Target sequence in this assay (Q15910 whole entry, looked up): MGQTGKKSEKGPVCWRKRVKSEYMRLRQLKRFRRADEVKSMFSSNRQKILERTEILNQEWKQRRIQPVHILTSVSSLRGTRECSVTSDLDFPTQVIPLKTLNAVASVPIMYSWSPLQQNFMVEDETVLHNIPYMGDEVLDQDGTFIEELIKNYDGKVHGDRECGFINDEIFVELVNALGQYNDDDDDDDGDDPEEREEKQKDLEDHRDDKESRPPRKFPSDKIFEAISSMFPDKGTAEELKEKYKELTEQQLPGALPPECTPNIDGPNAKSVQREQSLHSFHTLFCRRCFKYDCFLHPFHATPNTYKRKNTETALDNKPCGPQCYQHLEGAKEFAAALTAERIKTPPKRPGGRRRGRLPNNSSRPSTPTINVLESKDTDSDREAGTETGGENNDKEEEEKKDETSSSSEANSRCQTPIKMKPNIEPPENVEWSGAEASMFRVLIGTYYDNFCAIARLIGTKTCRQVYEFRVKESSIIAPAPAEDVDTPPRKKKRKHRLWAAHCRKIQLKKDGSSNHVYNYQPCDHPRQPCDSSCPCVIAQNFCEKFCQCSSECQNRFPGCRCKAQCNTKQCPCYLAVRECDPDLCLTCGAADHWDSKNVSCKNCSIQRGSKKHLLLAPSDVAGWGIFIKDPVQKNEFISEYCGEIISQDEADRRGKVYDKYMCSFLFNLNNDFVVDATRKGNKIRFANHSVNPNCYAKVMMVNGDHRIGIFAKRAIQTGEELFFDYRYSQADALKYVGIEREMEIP
Experiment [8] addresses T3, Histone-lysine N-methyltransferase EZH2. Briefly: Inhibition of human EZH2 using core histone as substrate incubated for 1 hr by fluorescence based assay.
Target sequence in this assay (Q15910 whole entry): as the sequence (Q15910 whole entry, looked up) above

The values that follow come from ChEMBL document CHEMBL4613315, “Design of First-in-Class Dual EZH2/HDAC Inhibitor: Biochemical Activity and Biological Evaluation in Cancer Cells” (ACS Med Chem Lett, 2020).

In general, IC50 refers to the concentration at which inhibition is half-maximal. One may read the inhibition as the change of the read-out against control, counted positive when it falls. High values mean strong suppression, low ones little suppression.

The structures appear in SMILES notation.

Histone deacetylase 2, sequence (Q92769 whole entry): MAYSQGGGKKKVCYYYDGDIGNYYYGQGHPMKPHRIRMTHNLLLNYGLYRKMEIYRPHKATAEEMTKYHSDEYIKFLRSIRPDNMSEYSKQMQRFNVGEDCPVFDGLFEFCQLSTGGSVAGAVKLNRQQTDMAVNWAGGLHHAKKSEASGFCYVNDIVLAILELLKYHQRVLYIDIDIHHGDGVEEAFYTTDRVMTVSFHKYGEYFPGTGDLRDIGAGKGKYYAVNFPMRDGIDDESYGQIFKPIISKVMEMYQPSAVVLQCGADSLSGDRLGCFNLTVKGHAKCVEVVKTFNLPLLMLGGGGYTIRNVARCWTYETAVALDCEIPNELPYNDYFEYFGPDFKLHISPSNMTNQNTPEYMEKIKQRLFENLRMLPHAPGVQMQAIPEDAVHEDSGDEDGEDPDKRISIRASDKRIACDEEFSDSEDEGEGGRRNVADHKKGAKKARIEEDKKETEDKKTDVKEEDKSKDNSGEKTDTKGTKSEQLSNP
Histone deacetylase 5, sequence (Q9UQL6 whole entry): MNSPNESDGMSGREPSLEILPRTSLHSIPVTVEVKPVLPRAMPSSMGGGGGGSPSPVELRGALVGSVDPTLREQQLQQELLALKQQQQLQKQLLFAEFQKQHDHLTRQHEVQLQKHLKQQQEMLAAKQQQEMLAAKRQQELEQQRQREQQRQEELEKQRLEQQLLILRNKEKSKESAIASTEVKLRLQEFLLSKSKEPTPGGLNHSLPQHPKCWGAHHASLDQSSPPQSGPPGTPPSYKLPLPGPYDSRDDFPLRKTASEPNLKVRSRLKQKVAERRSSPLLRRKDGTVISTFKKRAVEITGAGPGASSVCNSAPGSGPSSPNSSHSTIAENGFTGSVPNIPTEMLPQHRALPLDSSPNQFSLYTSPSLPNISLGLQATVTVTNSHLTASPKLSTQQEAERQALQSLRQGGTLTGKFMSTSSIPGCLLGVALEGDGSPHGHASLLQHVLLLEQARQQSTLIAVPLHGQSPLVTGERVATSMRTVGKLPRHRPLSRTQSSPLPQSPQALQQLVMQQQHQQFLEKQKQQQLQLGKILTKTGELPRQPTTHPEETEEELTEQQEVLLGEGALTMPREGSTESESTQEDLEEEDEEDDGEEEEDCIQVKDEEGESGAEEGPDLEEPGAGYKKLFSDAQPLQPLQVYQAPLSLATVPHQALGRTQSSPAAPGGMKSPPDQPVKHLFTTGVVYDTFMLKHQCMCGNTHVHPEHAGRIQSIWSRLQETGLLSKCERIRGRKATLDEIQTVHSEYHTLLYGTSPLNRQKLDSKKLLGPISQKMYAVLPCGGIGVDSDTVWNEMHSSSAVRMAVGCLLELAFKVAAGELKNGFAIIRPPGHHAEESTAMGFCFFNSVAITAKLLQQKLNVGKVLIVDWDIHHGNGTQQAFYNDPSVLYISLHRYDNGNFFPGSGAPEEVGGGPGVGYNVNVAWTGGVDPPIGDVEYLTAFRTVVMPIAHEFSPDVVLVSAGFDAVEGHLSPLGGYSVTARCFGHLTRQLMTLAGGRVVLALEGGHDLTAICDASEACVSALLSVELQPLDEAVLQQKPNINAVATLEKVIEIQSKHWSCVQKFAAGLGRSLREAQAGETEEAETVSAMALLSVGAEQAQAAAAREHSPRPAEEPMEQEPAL
Histone deacetylase 3, sequence (O15379 whole entry): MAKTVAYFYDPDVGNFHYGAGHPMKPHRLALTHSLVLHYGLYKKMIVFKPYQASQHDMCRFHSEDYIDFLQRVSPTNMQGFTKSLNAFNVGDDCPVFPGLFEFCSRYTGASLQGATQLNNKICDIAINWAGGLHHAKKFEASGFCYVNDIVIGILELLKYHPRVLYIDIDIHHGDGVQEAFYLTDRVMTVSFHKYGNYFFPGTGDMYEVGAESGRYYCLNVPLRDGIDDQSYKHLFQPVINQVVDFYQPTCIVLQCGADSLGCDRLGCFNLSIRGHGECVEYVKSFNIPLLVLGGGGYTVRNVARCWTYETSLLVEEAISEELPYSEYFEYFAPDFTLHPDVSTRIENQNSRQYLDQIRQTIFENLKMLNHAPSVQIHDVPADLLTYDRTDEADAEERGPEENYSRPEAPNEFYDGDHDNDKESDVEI
Histone deacetylase 1, sequence (Q13547 whole entry): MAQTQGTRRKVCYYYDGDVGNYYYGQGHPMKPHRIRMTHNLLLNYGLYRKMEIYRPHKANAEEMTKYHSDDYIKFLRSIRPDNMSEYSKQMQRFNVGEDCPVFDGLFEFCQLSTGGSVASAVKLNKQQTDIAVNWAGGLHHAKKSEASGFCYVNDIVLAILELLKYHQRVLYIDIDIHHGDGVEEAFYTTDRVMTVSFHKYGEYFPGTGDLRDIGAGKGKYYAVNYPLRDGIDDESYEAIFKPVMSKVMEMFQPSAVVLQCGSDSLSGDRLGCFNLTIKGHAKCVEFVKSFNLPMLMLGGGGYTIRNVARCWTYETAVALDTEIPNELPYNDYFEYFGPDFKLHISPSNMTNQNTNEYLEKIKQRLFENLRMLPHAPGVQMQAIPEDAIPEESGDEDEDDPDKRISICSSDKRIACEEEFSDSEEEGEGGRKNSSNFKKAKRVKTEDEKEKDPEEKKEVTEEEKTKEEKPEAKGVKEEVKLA

Take `Cc1cc(C)c(CNC(=O)c2cnn(-c3cccc(NC(=O)CCCCCCC(=O)NO)c3)c2C)c(=O)[nH]1`: the half-maximal inhibitory concentration (IC50) in experiment [1] was determined as 101 µM; in experiment [2], 2.08 µM; in experiment [3], 1.48 µM; in experiment [4] it was 0.83 µM; in experiment [5] it was 0.01 µM; in experiment [6] it was 2.36 µM. Moreover, the inhibition in experiment [7] worked out at 4%.
`Cc1cc(C)c(CNC(=O)c2cnn(-c3ccccc3)c2C)c(=O)[nH]1`: the IC50 in experiment [8] stood at 15.4 µM.
